One experiment concerns the target T1, FGFR3 (Homo sapiens, UniProt P22607).
T1 construct: purchased Upstate
Kind of experiment: FGFR3 in vitro kinase inhibitory activity assay. In kind it is biochemical. Conditions: for IC50: read-out: FGFR3 IC50(μM) or % I. The procedure:
FGFR3, VEGFR2 and PDGFR in vitro Kinase Inhibitory Activity Assays
Enzymes (from Upstate), prepared at 2× final concentration, were incubated with test compounds, biotinylated Flt3 substrate (biotin-VASSDNEYFYVDF) (Cell Signalling Technology Inc.) and ATP in the appropriate assay buffer (Table 1). The reaction was allowed to proceed for 3 hours (FGFR3), 1 hour (VEGFR2, PDGFR-beta) at room temperature on a plate shaker at 700 rpm before being stopped with 35 mM EDTA, pH 8 (FGFR3, VEGFR2) or 55 mM EDTA, pH 8 (PDGFR-beta). 5× detection mix/50 mM HEPES pH 7.5, 0.1% BSA, 11.34 nM Eu-anti-pY (PY20) (PerkinElmer) 74 nM SA-XL665 (Cisbio) for FGFR3, 50 mM HEPES, pH 7.5, 0.1% BSA, 11.34 nM Eu-anti-pY (PY20), 187.5 nM SA-XL665 for VEGFR2 and 50 mM HEPES, pH 7.5, 0.1% BSA, 11.34 nM Eu-anti-pY (PT66) (PerkinElmer), 375 nM SA-XL665 (Cisbio) for PDGFR-beta) was then added to each well and the plate sealed and incubated at room temperature for one hour on a plate shaker at 700 rpm. The plate was then read on a Packard Fusion plate reader or a BMG Pherastar both in TRF mode.

The test system of experiment [1] is parental wild-type Ba/F3 cells. The experiment in a line: Ba/F3 (WT) cell proliferation assay (Alamar Blue). Conditions: read-out: BaF3 WT prolif; for pIC50: BaF3, 72 hours, with mouse IL-3. It is filed as cell-based, murine. The procedure: Ba/F3-TEL-FGFR3 & Ba/F3 (WT) Cell Proliferation Assays
Stably transfected Ba/F3-TEL-FGFR3 cells were plated out into black 96-well tissue culture plates with clear bottoms in RPMI medium containing 10% FBS and 0.25 mg/ml G418 at a density of 5×10^3 cells/well (200 μl per well). The parental wild-type Ba/F3 cells (DSMZ no.: ACC 300) were plated out into black 96-well tissue culture plates with clear bottoms in RPMI medium containing 10% FBS and 2 ng/ml mouse IL-3 (R&D Systems) at a density of 2.5×10^3 cells/well (200 μl per well). Plates were placed in an incubator overnight before adding the compounds the following day. Dilutions of compounds were made in DMSO starting at 10 mM and were diluted into the wells to give a final DMSO concentration of 0.1% in assay. Compounds were left on the cells for 72 hours before the plates were removed from the incubator and 20 μl of Alamar Blue™ (Biosource) was added to each well. Plates were placed in the incubator for 4-6 hours before reading plates at 535 nm (excitation)/590 nm (emission) on a Fusion plate reader (Packard). Where inhibition is high an IC50 can be determined.
On the technique in general: Resazurin is reduced to fluorescent resorufin, in cell work by metabolically active cells.

The target in a further experiment is T2, Ba/F3-Flt3 cells (Homo sapiens, UniProt P36888, cells depend on it, form not given).
T2 construct: Ba/F3-flt3 − IL3 pIC50; other: without IL3
T2 sequence (P36888 1-993): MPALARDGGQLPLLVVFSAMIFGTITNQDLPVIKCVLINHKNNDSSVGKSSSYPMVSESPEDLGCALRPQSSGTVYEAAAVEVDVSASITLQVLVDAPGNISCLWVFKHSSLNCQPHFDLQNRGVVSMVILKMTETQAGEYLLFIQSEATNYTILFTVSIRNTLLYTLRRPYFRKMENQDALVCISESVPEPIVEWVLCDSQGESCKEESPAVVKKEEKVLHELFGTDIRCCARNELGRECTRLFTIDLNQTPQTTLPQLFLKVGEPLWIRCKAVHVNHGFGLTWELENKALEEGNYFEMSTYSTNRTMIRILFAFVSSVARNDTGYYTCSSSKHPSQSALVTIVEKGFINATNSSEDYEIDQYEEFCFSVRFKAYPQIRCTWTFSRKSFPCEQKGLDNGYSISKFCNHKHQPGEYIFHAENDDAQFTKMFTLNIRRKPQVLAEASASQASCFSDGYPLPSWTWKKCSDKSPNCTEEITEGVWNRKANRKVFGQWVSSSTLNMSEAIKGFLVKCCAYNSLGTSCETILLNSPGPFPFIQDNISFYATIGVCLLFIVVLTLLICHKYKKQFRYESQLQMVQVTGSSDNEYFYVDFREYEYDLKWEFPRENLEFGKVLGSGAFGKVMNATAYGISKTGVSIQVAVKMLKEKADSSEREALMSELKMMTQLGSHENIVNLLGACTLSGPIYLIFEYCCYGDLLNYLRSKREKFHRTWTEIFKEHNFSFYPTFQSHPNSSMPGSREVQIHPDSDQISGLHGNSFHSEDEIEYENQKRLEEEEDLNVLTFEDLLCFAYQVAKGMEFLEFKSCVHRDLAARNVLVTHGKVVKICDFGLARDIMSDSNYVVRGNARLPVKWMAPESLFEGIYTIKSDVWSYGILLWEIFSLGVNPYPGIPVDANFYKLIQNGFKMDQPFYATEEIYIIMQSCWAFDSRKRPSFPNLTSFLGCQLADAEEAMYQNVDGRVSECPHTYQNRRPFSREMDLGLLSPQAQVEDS
Kind of experiment: Ba/F3-Flt3 assay (Alamar Blue). It is filed as cell-based, murine. Conditions: without IL3. The method, boiled down: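 Ba/F3-Flt3 cells in phenol red-free RPMI-1640 with 10% FCS were plated, and compound dilutions were added 24 h later at 0.2% DMSO final. After 24 h at 37 °C, Alamar Blue was added for 4 h and fluorescence was read (ex 544/em 590 nm) to derive IC50. The IL3 condition added 10 ng/ml murine IL3 during compound exposure.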

pIC50: −log10 of the molar value. A value given as a limit tells only on which side of the number the result lay.

T1 sequence (P22607 23-806): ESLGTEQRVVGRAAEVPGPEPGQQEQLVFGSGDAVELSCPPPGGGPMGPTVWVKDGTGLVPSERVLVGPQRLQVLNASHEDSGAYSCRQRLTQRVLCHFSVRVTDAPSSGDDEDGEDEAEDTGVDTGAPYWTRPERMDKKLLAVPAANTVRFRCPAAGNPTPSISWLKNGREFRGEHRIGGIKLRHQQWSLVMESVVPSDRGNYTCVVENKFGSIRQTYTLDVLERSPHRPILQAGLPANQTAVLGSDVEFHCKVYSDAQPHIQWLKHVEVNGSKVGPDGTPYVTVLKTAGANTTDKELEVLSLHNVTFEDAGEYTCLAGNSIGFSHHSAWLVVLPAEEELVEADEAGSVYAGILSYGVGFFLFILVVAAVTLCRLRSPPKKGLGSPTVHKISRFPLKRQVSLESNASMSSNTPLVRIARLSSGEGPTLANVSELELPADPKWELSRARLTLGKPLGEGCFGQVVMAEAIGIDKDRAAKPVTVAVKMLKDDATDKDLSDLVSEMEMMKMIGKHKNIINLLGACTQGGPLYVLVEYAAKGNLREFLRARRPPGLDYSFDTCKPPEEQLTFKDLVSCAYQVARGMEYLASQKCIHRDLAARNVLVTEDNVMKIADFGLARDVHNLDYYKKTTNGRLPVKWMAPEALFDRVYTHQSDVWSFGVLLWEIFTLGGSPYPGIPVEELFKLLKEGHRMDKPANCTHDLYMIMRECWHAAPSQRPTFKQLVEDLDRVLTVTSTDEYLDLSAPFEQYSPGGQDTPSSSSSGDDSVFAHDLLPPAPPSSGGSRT

By IC50 is commonly meant the concentration that gives 50% inhibition. Take `CC(C)Oc1cc(NC(=O)NCC(F)(F)F)cc(-c2cnc3cc(-c4ncc(F)c(N)n4)ccn23)c1` [Compound F-1, 1-{3-[7-(4-Amino-5-fluoro-pyrimidin-2-yl)-imidazo[1,2-a]pyridin-3-yl]-5-isopropoxy-phenyl}-3-(2,2,2-trifluoro-ethyl)-urea]: the IC50 on FGFR3 worked out at 0.0072 µM. The inhibition at 10 µM in experiment [1] (Mus musculus, BaF3, 72 h) stood at 42%. The “Ba/F3-flt3 − IL3 pIC50” value at Ba/F3-Flt3 cells is <5.

For the compound `CC(C)Oc1cc(NC(=O)NCC(F)(F)F)cc(-c2cnc3cc(-c4ncccn4)ccn23)c1` [Compound F-2, 1-[3-Isopropoxy-5-(7-pyrimidin-2-yl-imidazo[1,2-a]pyridin-3-yl)-phenyl]-3-(2,2,2-trifluoro-ethyl)-urea], the IC50 at FGFR3 is 0.0144 µM. Besides, the inhibition at 10 µM in experiment [1] (Mus musculus, BaF3, 72 h) came to 33%. In addition, the “Ba/F3-flt3 − IL3 pIC50” value on Ba/F3-Flt3 cells was <5.

For `Cc1nc(-c2ccn3c(-c4cc(NC(=O)NCC(F)(F)F)cc(OC(C)C)c4)cnc3c2)ccc1F` [Compound F-3, 1-{3-[7-(5-Fluoro-6-methyl-pyridin-2-yl)-imidazo[1,2-a]pyridin-3-yl]-5-isopropoxy-phenyl}-3-(2,2,2-trifluoro-ethyl)-urea], on FGFR3, the IC50 was found to be 0.0087 µM. The pIC50 in experiment [1] was ~5.10. Also, the “Ba/F3-flt3 − IL3 pIC50” value at Ba/F3-Flt3 cells is <5.

Regarding `Cc1nc(N)cc(-c2ccn3c(-c4cc(NC(=O)NCC(F)(F)F)cc(OC(C)C)c4)cnc3c2)n1` [Compound F-4, 1-{3-[7-(6-Amino-2-methyl-pyrimidin-4-yl)-imidazo[1,2-a]pyridin-3-yl]-5-isopropoxy-phenyl}-3-(2,2,2-trifluoro-ethyl)-urea], the “FGFR3 IC50(μM) or % I” value at FGFR3 (% I at 0.003 (unit not given)) is reported as 45.0% at 0.003. In experiment [1] (Mus musculus, BaF3, 72 h), the inhibition at 10 µM worked out at 5%. For the same compound, at Ba/F3-Flt3 cells, the “Ba/F3-flt3 − IL3 pIC50” value is given as <5.

Regarding `Cc1nnc(-c2ccn3c(-c4cc(NC(=O)NCC(F)(F)F)cc(OC(C)C)c4)cnc3c2)o1` [Compound F-5, 1-{3-Isopropoxy-5-[7-(5-methyl-[1,3,4]oxadiazol-2-yl)-imidazo[1,2-a]pyridin-3-yl]-phenyl}-3-(2,2,2-trifluoro-ethyl)-urea], the IC50 at FGFR3 turned out to be 0.0154 µM. Further, the inhibition at 10 µM in experiment [1] (Mus musculus, BaF3, 72 h) was 59%. Besides, on Ba/F3-Flt3 cells, the “Ba/F3-flt3 − IL3 pIC50” value is <5.

Turning to `CC(C)Oc1cc(NC(=O)NCC(F)(F)F)cc(-c2cnc3cc(C(=O)C4CC4)ccn23)c1` [Compound F-6, 1-[3-(7-Cyclopropanecarbonyl-imidazo[1,2-a]pyridin-3-yl)-5-isopropoxy-phenyl]-3-(2,2,2-trifluoro-ethyl)-urea], the IC50 on FGFR3 amounted to 0.0012 µM. For the same compound, the pIC50 in experiment [1] was 5.25. The “Ba/F3-flt3 − IL3 pIC50” value at Ba/F3-Flt3 cells is recorded as <5.

Turning to `COCc1cc(NC(=O)NCC(F)(F)F)cc(-c2cnc3cc(-c4nnc(C)o4)ccn23)c1` [Compound F-7, 1-{3-Methoxymethyl-5-[7-(5-methyl-[1,3,4]oxadiazol-2-yl)-imidazo[1,2-a]pyridin-3-yl]-phenyl}-3-(2,2,2-trifluoro-ethyl)-urea], the IC50 at FGFR3 was 0.018 µM. The inhibition at 10 µM in experiment [1] (Mus musculus, BaF3, 72 h) worked out at 0%. Further, the “Ba/F3-flt3 − IL3 pIC50” value on Ba/F3-Flt3 cells was <5.

For `CC(C)Oc1cc(NC(=O)NCC(F)(F)F)cc(-c2cnc3cc(-c4ccnc(C(F)(F)F)n4)ccn23)c1` [Compound F-8, 1-{3-Isopropoxy-5-[7-(2-trifluoromethyl-pyrimidin-4-yl)-imidazo[1,2-a]pyridin-3-yl]-phenyl}-3-(2,2,2-trifluoro-ethyl)-urea], at FGFR3, the IC50 was 0.034 µM. Further, the pIC50 in experiment [1] was ~5.70. For the same compound, the “Ba/F3-flt3 − IL3 pIC50” value on Ba/F3-Flt3 cells is given as <5.

With `COCc1cc(NC(=O)NCC(F)(F)F)cc(-c2cnc3cc(-c4ccnc(C(F)(F)F)n4)ccn23)c1` [Compound F-9, 1-{3-Methoxymethyl-5-[7-(2-trifluormethyl-pyrimidin-4-yl)-imidazo[1,2-a]pyridin-3-yl]-phenyl}-3-(2,2,2-trifluoro-ethyl)-urea], at FGFR3, the IC50 was 0.0093 µM. Also, the inhibition at 3 µM in experiment [1] (Mus musculus, BaF3, 72 h, % at 3.00 μM) amounted to 17%. On Ba/F3-Flt3 cells, the “Ba/F3-flt3 − IL3 pIC50” value is reported as <5.

Take `CCNC(=O)Nc1cc(OC(C)C)cc(-c2cnc3cc(-c4nncs4)ccn23)c1` [Compound F-10, 1-Ethyl-3-[3-isopropoxy-5-(7-[1,3,4]thiadiazol-2-yl-imidazo[1,2-a]pyridin-3-yl)-phenyl]-urea]: the IC50 on FGFR3 is 0.013 µM. Also, the inhibition at 10 µM in experiment [1] (Mus musculus, BaF3, 72 h) was 34%. The “Ba/F3-flt3 − IL3 pIC50” value at Ba/F3-Flt3 cells is listed as 5.04.

With `Cc1nnc(-c2ccn3c(-c4cc(NC(=O)NCC(F)(F)F)cc(OC5CCC5)c4)cnc3c2)o1` [Compound F-11, 1-{3-Cyclobutoxy-5-[7-(5-methyl-[1,3,4]oxadiazol-2-yl)-imidazo[1,2-a]pyridin-3-yl]-phenyl}-3-(2,2,2-trifluoro-ethyl)-urea], the IC50 at FGFR3 is 0.046 µM. The inhibition at 10 µM in experiment [1] (Mus musculus, BaF3, 72 h) stood at 14%. In addition, the “Ba/F3-flt3 − IL3 pIC50” value on Ba/F3-Flt3 cells is listed as <5.

As to `CC(C)Oc1cc(NC(=O)NCC(F)(F)F)cc(-c2cnc3cc(N4CCC(F)(F)CC4)ccn23)c1` [Compound F-13, 1-{3-[7-(4,4-Difluoro-piperidin-1-yl)-imidazo[1,2-a]pyridin-3-yl]-5-isopropoxy-phenyl}-3-(2,2,2-trifluoro-ethyl)-urea], at FGFR3, the half-maximal inhibitory concentration (IC50) turned out to be 0.061 µM. For the same compound, the pIC50 in experiment [1] was 5.49. In addition, the “Ba/F3-flt3 − IL3 pIC50” value on Ba/F3-Flt3 cells was <5.

Turning to `CCOc1cc(NC(=O)NCC(F)(F)F)cc(-c2cnc3cc(-c4nnc(C)o4)ccn23)c1` [Compound F-15, 1-{3-Ethoxy-5-[7-(5-methyl-[1,3,4]oxadiazol-2-yl)-imidazo[1,2-a]pyridin-3-yl]-phenyl}-3-(2,2,2-trifluoro-ethyl)-urea], the IC50 on FGFR3 came to 0.025 µM. In addition, the inhibition at 10 µM in experiment [1] (Mus musculus, BaF3, 72 h) came out at 23%. Besides, the “Ba/F3-flt3 − IL3 pIC50” value at Ba/F3-Flt3 cells is recorded as <5.

As for `CCOc1cc(NC(=O)NCC(F)(F)F)cc(-c2cnc3cc(-c4ccnc(C(F)(F)F)n4)ccn23)c1` [Compound F-16, 1-{3-Ethoxy-5-[7-(2-trifluoromethyl-pyrimidin-4-yl)-imidazo[1,2-a]pyridin-3-yl]-phenyl}-3-(2,2,2-trifluoro-ethyl)-urea], the IC50 at FGFR3 was 0.027 µM. The inhibition at 10 µM in experiment [1] (Mus musculus, BaF3, 72 h) amounted to 32%. The “Ba/F3-flt3 − IL3 pIC50” value on Ba/F3-Flt3 cells is listed as <5.

Source of the values: patent US8722687B2, “Imidazo [1,2-A]pyridine derivatives as FGFR kinase inhibitors for use in therapy” (Astex Therapeutics Ltd, priority 2009, dated 2014).
